Source: patent US9695154B2, “Heteroaryl inhibitors of sumo activating enzyme” (MILLENNIUM PHARMACEUTICALS, INC., priority 2013, dated 2017)

Target: T1, recombinant human SAE enzyme (Homo sapiens, UniProt Q9UBT2)
T1 sequence (Q9UBT2 1-640): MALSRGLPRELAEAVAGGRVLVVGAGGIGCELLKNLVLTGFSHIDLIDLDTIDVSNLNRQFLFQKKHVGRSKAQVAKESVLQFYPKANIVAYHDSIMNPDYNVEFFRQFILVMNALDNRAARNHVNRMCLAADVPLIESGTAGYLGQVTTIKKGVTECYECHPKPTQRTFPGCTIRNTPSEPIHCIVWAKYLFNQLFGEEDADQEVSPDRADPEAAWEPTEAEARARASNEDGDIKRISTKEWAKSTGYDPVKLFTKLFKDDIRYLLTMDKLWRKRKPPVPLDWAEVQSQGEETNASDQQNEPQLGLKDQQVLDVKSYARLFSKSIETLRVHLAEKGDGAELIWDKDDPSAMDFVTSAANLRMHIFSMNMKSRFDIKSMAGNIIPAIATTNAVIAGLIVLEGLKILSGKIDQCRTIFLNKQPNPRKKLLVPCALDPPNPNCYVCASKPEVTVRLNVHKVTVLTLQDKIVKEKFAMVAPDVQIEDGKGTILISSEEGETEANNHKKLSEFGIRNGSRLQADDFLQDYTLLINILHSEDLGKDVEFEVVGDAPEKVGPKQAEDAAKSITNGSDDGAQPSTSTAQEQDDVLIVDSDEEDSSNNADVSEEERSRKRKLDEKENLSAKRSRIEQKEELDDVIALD
T1 sequence (Q9UBE0 1-346 partner): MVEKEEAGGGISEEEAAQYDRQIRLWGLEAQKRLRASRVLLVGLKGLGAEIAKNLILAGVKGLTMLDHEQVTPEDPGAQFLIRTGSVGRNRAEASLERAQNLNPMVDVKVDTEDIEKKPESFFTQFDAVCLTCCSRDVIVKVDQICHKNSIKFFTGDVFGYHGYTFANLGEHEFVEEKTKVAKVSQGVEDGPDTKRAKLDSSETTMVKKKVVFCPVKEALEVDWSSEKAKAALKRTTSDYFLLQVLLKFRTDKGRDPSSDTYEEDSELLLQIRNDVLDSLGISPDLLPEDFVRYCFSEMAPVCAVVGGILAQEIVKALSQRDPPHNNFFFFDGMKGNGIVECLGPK
Test: SAE HTRF Enzyme Assay
Assay type: biochemical
Details: for IC50: class symbols A-C; for Percent Inhibition / inhibition at 0.111 µM: compound concentration 0.111 μM; for inhibition at 0.111 µM: read-out: Percent Inhibition
How it was run: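 Reaction with 0.11 nM recombinant human SAE, 0.5 μM ATP, 0.01 μM Ubc9-GST, 0.125 μM Sumo-Flag in HEPES pH 7.5, MgCl2, GSH, BSA, 105 min at 24 °C. Stopped with EDTA/KF buffer carrying Eu-anti-Flag and anti-GST-APC; HTRF read after 2 h; % inhibition or IC50.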

`CC(c1cccc(Cl)c1)n1ccc(C(=O)c2cncnc2N[C@@H]2C[C@H](COS(N)(=O)=O)[C@@H](O)C2)n1` (single isomer, unassigned) [Compound I-360, [(1R,2S,4R)-4-{[5-({1-[(1S)-1-(3-chlorophenyl)ethyl]-1H-pyrazol-3-yl}carbonyl)pyrimidin-4-yl]amino}-2-hydroxycyclopentyl]methyl sulfamate or [(1R,2S,4R)-4-{[5-({1-[(1R)-1-(3-chlorophenyl)ethyl]-1H-pyrazol-3-yl}carbonyl)pyrimidin-4-yl]amino}-2-hydroxycyclopentyl]methyl sulfamate] was tested, and the IC50 was less than 10 nM and the “Percent Inhibition” value (0.111 µM) was 99%.
With `COC(C)c1cc(C(=O)c2cncnc2N[C@@H]2C[C@H](COS(N)(=O)=O)[C@@H](O)C2)nn1Cc1cccc(Br)c1` (single isomer, unassigned) [Compound I-369a, [(1R,2S,4R)-4-{[5-({1-(3-bromobenzyl)-5-[(1S)-1-methoxyethyl]-1H-pyrazol-3-yl}carbonyl)pyrimidin-4-yl]amino}-2-hydroxycyclopentyl]methyl sulfamate or [(1R,2S,4R)-4-{[5-({1-(3-bromobenzyl)-5-[(1R)-1-methoxyethyl]-1H-pyrazol-3-yl}carbonyl)pyrimidin-4-yl]amino}-2-hydroxycyclopentyl]methyl sulfamate] the IC50 was less than 10 nM and the “Percent Inhibition” value was 98%.
`CN(c1ncncc1C(=O)c1ccn(Cc2cccc(Br)c2)n1)[C@@H]1C[C@H](COS(N)(=O)=O)[C@@H](O)C1` [Compound I-157, {(1R,2S,4R)-4-[(5-{[1-(3-Bromobenzyl)-1H-pyrazol-3-yl]carbonyl}pyrimidin-4-yl)(methyl)amino]-2-hydroxycyclopentyl}methyl sulfamate] was tested, and the IC50 was 10 to 100 nM and the inhibition at 0.111 µM was 67%.
`NS(=O)(=O)OC[C@H]1C[C@@H](Nc2ncncc2C(=O)c2ccn(Cc3cccc(Br)c3)c2)[C@@H](F)[C@@H]1O` [Compound I-312, {(1R,2R,3R,4R)-4-[(5-{[1-(3-bromobenzyl)-1H-pyrrol-3-yl]carbonyl}pyrimidin-4-yl)amino]-3-fluoro-2-hydroxycyclopentyl}methyl sulfamate] was tested, and the IC50 was less than 10 nM and the inhibition at 0.111 µM was 99%.
`NS(=O)(=O)OC[C@H]1C[C@@H](Nc2ncncc2C(=O)c2ccn(Cc3ccc(F)cc3Cl)n2)[C@H](O)[C@@H]1O` [Compound I-194, {(1R,2R,3S,4R)-4-[(5-{[1-(2-chloro-4-fluorobenzyl)-1H-pyrazol-3-yl]carbonyl}pyrimidin-4-yl)amino]-2,3-dihydroxycyclopentyl}methyl sulfamate] was tested, and the IC50 was less than 10 nM and the inhibition at 0.111 µM was 100%.
Work on `NS(=O)(=O)OC[C@H]1C[C@@H](Nc2ncncc2C(=O)c2ccn(Cc3cccc(F)c3)n2)C[C@@H]1O` [Compound I-165, {(1R,2S,4R)-4-[(5-{[1-(3-fluorobenzyl)-1H-pyrazol-3-yl]carbony1}pyrimidin-4-yl)amino]-2-hydroxycyclopentyl}methyl sulfamate] yielded an IC50 of less than 10 nM and an inhibition at 0.111 µM of 98%.
`NS(=O)(=O)OC[C@@H]1C[C@@H](Nc2ncncc2C(=O)c2ccn(Cc3cccc(Br)c3)c2)C[C@@H]1O` [Compound I-319, {(1S,2S,4R)-4-[(5-{[1-(3-Bromobenzyl)-1H-pyrrol-3-yl]carbonyl}pyrimidin-4-yl)amino]-2-hydroxycyclopentyl}methyl sulfamate] was tested, and the IC50 was less than 10 nM and the inhibition at 0.111 µM was 99%.
Work on `NS(=O)(=O)OC[C@H]1C[C@@H](Nc2ncncc2C(=O)c2ccn(Cc3cccc(C(F)(F)F)c3)c2)C[C@@H]1O` [Compound I-129, [(1R,2S,4R)-2-hydroxy-4-{[5-({1-[3-(trifluoromethyl)benzyl]-1H-pyrrol-3-yl}carbonyl)pyrimidin-4-yl]amino}cyclopentyl]methyl sulfamate] yielded an IC50 of less than 10 nM and an inhibition at 0.111 µM of 99%.
`N#Cc1cccc(Cn2ccc(C(=O)c3cncnc3N[C@@H]3C[C@H](COS(N)(=O)=O)[C@@H](O)[C@H]3O)n2)c1` [Compound I-25, {(1R,2R,3S,4R)-4-[(5-{[1-(3-cyanobenzyl)-1H-pyrazol-3-yl]carbonyl}pyrimidin-4-yl)amino]-2,3-dihydroxycyclopentyl}methyl sulfamate] showed an IC50 of less than 10 nM and an inhibition at 0.111 µM of 93%.
`CC(C)=C(C)n1ccc(C(=O)c2cncnc2N[C@@H]2C[C@H](COS(N)(=O)=O)[C@@H](O)C2)n1` [Compound I-344, {(1R,2S,4R)-2-hydroxy-4-[(5-{[1-(3-methylbut-2-en-2-yl)-1H-pyrazol-3-yl]carbonyl}pyrimidin-4-yl)amino]cyclopentyl}methyl sulfamate] was tested, and the IC50 was 10 to 100 nM and the inhibition at 0.111 µM was 77%.
With `NS(=O)(=O)OC[C@H]1C[C@@H](Nc2ncncc2C(=O)c2ccn(Cc3ccc(F)c(Br)c3)n2)[C@@H](F)[C@@H]1O` [Compound I-92, {(1R,2R,3R,4R)-4-[(5-{[1-(3-bromo-4-fluorobenzyl)-1H-pyrazol-3-yl]carbonyl}pyrimidin-4-yl)amino]-3-fluoro-2-hydroxycyclopentyl}methyl sulfamate] the IC50 was less than 10 nM and the inhibition at 0.111 µM was 99%.
Work on `COc1cccc(Cn2ccc(C(=O)c3cncnc3N[C@@H]3C[C@H](COS(N)(=O)=O)[C@@H](O)[C@@H]3F)c2)n1` [Compound I-188, [(1R,2R,3R,4R)-3-fluoro-2-hydroxy-4-{[5-({1-[(6-methoxypyridin-2-yl)methyl]-1H-pyrrol-3-yl}carbonyl)pyrimidin-4-yl]amino}cyclopentyl]methyl sulfamate] yielded an IC50 of less than 10 nM and an inhibition at 0.111 µM of 98%.
`NS(=O)(=O)OC[C@H]1C[C@@H](Nc2ncncc2C(=O)c2ccn(Cc3cc(Br)ccc3Cl)n2)C[C@@H]1O` [Compound I-239, {(1R,2S,4R)-4-[(5-{[1-(5-bromo-2-chlorobenzyl)-1H-pyrazol-3-yl]carbonyl}pyrimidin-4-yl)amino]-2-hydroxycyclopentyl}methyl sulfamate] gave an IC50 of less than 10 nM and an inhibition at 0.111 µM of 99%.
For `NS(=O)(=O)OC[C@H]1C[C@@H](Nc2ncncc2C(=O)c2ccn(Cc3cccc(I)c3)n2)[C@@H](F)[C@@H]1O` [Compound I-42, {(1R,2R,3R,4R)-3-fluoro-2-hydroxy-4-[(5-{[1-(3-iodobenzyl)-1H-pyrazol-3-yl]carbonyl}pyrimidin-4-yl)amino]cyclopentyl}methyl sulfamate], the IC50 was less than 10 nM and the inhibition at 0.111 µM was 99%.
`NS(=O)(=O)OC[C@H]1C[C@@H](Nc2ncncc2C(=O)c2ccn(Cc3cc(F)ccc3F)n2)C[C@@H]1O` [Compound I-35, {(1R,2S,4R)-4-[(5-{[1-(2,5-difluorobenzyl)-1H-pyrazol-3-yl]carbonyl}pyrimidin-4-yl)amino]-2-hydroxycyclopentyl}methyl sulfamate] was tested, and the IC50 was less than 10 nM and the inhibition at 0.111 µM was 95%.
`NS(=O)(=O)OC[C@H]1C[C@@H](Nc2ncncc2C(=O)c2ccn(Cc3ccc(F)cc3C(F)(F)F)n2)[C@H](O)[C@@H]1O` [Compound I-121, [(1R,2R,3S,4R)-4-{[5-({1-[4-fluoro-2-(trifluoromethyl)benzyl]-1H-pyrazol-3-yl}carbonyl)pyrimidin-4-yl]amino}-2,3-dihydroxycyclopentyl]methyl sulfamate] gave an IC50 of less than 10 nM and an inhibition at 0.111 µM of 94%.
In the case of `NS(=O)(=O)OC[C@H]1C[C@@H](Nc2ncncc2C(=O)c2ccn(Cc3ccc(F)c4ccccc34)n2)[C@H](O)[C@@H]1O` [Compound I-273, [(1R,2R,3S,4R)-4-{[5-({1-[(4-fluoro-1-naphthyl)methyl]-1H-pyrazol-3-yl}carbonyl)pyrimidin-4-yl]amino}-2,3-dihydroxycyclopentyl]methyl sulfamate], the IC50 is reported as less than 10 nM and the inhibition at 0.111 µM is reported as 98%.
`NS(=O)(=O)OC[C@H]1C[C@@H](Nc2ncncc2C(=O)c2cc(CO)n(Cc3cccc(Br)c3)n2)C[C@@H]1O` [Compound I-90, {(1R,2S,4R)-4-[(5-{[1-(3-Bromobenzyl)-5-(hydroxymethyl)-1H-pyrazol-3-yl]carbonyl}pyrimidin-4-yl)amino]-2-hydroxycyclopentyl}methyl sulfamate] showed an IC50 of less than 10 nM and an inhibition at 0.111 µM of 98%.
`NS(=O)(=O)OC[C@H]1C[C@@H](Nc2ncncc2C(=O)c2ccn(S(=O)(=O)c3cccc(Br)c3)n2)[C@H](O)[C@@H]1O` [Compound I-1, [(1R,2R,3S,4R)-4-{[5-({1-[(3-bromophenyl)sulfonyl]-1H-pyrazol-3-yl}carbonyl)pyrimidin-4-yl]amino}-2,3-dihydroxycyclopentyl]methyl sulfamate] showed an IC50 of less than 10 nM and an inhibition at 0.111 µM of 98%.
